The values below are quoted from earlier work in patent publication US4939134A, “26-aminocholesterol and derivatives and analogs thereof in the regulation of cholesterol accumulation in body tissue” (New York University, priority 1988, dated 1990).

Data set [1] deals with HMG CoA reductase. As to conditions: cited from earlier work.
Data set [2] concerns LDL receptors. The settings on record: fibroblasts and other non-hepatic cells, cell culture studies; cited from earlier work.
The test system of data set [3] is hepatic cholesterol synthesis. The settings on record: cited from earlier work.

Turning to `CC[C@H](C)C(=O)O[C@H]1C[C@@H](C)C=C2C=C[C@H](C)[C@H](CC[C@@H]3C[C@@H](O)CC(=O)O3)[C@H]21` [mevinolin], the “amount of HMG CoA reductase” value in data set [1] is on record as “increases the amount of HMG CoA reductase”. Besides, in data set [2], the LDL receptors entry is listed as “upregulates LDL receptors”. Further, the hepatic cholesterol synthesis entry in data set [3] is “inhibit hepatic cholesterol synthesis”.
